Measured values taken from US20230233537A1, “Compositions and Kits of Parts Comprising N,N-Dimethyltryptamine and Harmine and Their Use in Therapy” (University of Zürich, priority 2020, published 2023).

Assays:
[1] = aqueous solubility of DMT and harmine forms; conditions: for solubility: water, 25 °C
[2] = local tolerability on nasal or oral mucosa (burning sensation); conditions: for burning sensation on nasal application: intranasal
[3] = buccal / transmucosal absorption of DMT forms; conditions: in vivo
[4] = combined intranasal/buccal study (parenteral pharmahuasca): DMT and harmine concentrations in plasma; conditions: for bioavailability (area under the curve; AUC) compared to oral administration: DMT fumarate intranasal, harmine HCl buccal; for variation of peak plasma concentrations (cmax), extensive vs. poor metabolizers, factor: 150 mg buccal harmine HCl, up to 50 mg incremental intranasal DMT fumarate
[5] = target: T1, monoamine oxidase B (MAO-B) (Homo sapiens, UniProt P27338); conditions: cited from earlier work
T1 sequence (P27338 1-520): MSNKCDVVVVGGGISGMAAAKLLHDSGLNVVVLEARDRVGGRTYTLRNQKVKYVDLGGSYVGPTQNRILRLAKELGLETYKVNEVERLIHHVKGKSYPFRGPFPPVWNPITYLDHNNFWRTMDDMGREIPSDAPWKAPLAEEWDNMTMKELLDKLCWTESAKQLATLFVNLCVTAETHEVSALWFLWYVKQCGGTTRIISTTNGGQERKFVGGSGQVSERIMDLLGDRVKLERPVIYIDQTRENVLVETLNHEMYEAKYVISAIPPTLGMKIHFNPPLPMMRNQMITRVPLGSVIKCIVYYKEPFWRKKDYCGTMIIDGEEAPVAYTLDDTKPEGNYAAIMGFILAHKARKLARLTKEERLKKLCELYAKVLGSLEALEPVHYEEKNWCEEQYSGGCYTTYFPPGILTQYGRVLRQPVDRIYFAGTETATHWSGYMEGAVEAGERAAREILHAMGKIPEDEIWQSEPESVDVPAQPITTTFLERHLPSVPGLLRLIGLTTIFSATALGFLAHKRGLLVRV

[6] = target: T2, monoamine oxidase A (MAO-A) (Homo sapiens, UniProt P21397); conditions: cited from earlier work
T2 sequence (P21397 1-527): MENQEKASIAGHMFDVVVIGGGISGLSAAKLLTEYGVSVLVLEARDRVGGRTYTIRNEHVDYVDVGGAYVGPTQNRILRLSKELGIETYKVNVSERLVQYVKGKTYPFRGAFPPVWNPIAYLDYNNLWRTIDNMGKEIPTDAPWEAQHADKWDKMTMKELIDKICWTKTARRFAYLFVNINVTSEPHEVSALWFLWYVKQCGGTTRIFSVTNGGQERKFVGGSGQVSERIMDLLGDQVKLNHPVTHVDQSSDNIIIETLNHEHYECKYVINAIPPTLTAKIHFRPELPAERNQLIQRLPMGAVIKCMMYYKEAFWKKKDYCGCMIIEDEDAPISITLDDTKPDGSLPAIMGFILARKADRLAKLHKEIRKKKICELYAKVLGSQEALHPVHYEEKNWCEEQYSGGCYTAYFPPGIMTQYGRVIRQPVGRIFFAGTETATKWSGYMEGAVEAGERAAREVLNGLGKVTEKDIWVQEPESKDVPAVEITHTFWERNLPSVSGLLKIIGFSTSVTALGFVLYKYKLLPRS

[7] = peroral pharmahuasca study: DMT and harmine concentrations in plasma; conditions: male, human, oral
[8] = target: hepatic enzyme CYP2D6 (Homo sapiens, UniProt P10635); conditions: cited from earlier work
hepatic enzyme CYP2D6, sequence (P10635 whole entry): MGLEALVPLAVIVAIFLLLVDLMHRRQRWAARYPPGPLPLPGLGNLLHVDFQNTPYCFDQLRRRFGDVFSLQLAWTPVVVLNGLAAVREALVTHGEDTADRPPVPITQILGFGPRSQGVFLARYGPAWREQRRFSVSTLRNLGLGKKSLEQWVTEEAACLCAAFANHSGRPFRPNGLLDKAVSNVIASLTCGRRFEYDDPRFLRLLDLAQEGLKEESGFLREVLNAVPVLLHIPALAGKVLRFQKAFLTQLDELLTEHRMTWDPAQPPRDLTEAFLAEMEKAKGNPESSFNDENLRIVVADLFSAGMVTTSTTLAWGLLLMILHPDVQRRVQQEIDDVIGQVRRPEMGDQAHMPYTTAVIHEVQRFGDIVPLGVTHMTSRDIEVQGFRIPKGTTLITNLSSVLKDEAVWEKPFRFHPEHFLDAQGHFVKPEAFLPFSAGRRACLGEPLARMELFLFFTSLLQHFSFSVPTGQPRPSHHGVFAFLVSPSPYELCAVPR

## COc1ccc2c(c1)[nH]c1c(C)nccc12.O=S(=O)(O)O [harmine sulfate]
[1]
  solubility: ≤ 35 mg/mL
[2]
  burning sensation on nasal application: intense burning sensation

## CC(=O)O.COc1ccc2c(c1)[nH]c1c(C)nccc12 [harmine acetate]
[1]
  solubility: ≤ 35 mg/mL
[2]
  burning sensation on nasal application: intense burning sensation

## COc1ccc2c(c1)[nH]c1c(C)nccc12.O=C(O)/C=C/C(=O)O [harmine fumarate]
[1]
  solubility: ≤ 35 mg/mL
[2]
  burning sensation on nasal application: intense burning sensation

## CN(C)CCc1c[nH]c2ccccc12.O=C(O)/C=C/C(=O)O [DMT fumarate, N,N-dimethyltryptamine fumarate]
[1]
  solubility (in words): high
  solubility: > 35 mg/mL
[3]
  transmucosal absorption: efficient
[4]
  bioavailability (area under the curve; AUC) compared to oral administration: substantially higher

## COc1ccc2c(c1)[nH]c1c(C)nccc12 [harmine, 7-Methoxy-1-methyl-9H-pyrido[3,4-b]indol]
[5]
  inhibition of MAO-B: does not inhibit
[6]
  inhibition of MAO-A: reversibly inhibits
[7]
  Tmax: 1 to 4.5 h
[1]
  solubility (in words): very low
[4]
  variation of peak plasma concentrations (cmax), extensive vs. poor metabolizers, factor: ~3.2
[8]
  degradation by CYP2D6: mainly degraded

## COc1ccc2c(c1)[nH]c1c(C)nccc12.Cl [harmine HCl, Harmine hydrochloride]
[1]
  solubility: ≤ 35 mg/mL
[4]
  bioavailability (area under the curve; AUC) compared to oral administration: substantially higher
[2]
  burning sensation on nasal application: intense burning sensation

## CN(C)CCc1c[nH]c2ccccc12 [DMT, N,N-Dimethyltryptamine]
[4]
  variation of peak plasma concentrations (cmax), extensive vs. poor metabolizers, factor: ~2.3
[2]; buccal, basic corrosion of the oral mucosa
  burning sensation when administered buccally: burning sensation

## COc1ccc2c(c1)[nH]c1c(C)nccc12.O=C(O)CC(O)(CC(=O)O)C(=O)O [harmine citrate]
[1]
  solubility: ≤ 35 mg/mL
[2]
  burning sensation on nasal application: intense burning sensation
